Measurements from patent US20050080142A1 (priority 2003, published 2005).

Legend:
Assay type in all cases: cell-based
[1] = test system: Tetrahymena (Trophozoite)
Acanthamoeba (Cyst) = test system: Acanthamoeba (Cyst)
[2] = test system: Acanthamoeba (Trophozoite)

SMILES	Minimal Lethal Concentration, Tetrahymena (Trophozoite) [1]	Minimal Lethal Concentration, Acanthamoeba (Cyst) (Acanthamoeba (Cyst))	Minimal Lethal Concentration, Acanthamoeba (Trophozoite) [2]
N=C(N)N [Guanidine]	400 µg/mL	500 µg/mL	500 µg/mL
CCCCCCCCCCCCNC(=N)N [Dodecylguanidine]	10 µg/mL	40 µg/mL	25 µg/mL
[H]/N=C(\N/C(=N/[H])NCCCCCCNC(=N)NC(=N)Nc1ccc(Cl)cc1)Nc1ccc(Cl)cc1 [Chlorhexidine]	15 µg/mL	50 µg/mL	10 µg/mL
